Laboratory results from patent publication US5112519A, “Process for production of biodegradable surfactants and compositions thereof” (Mobil Oil Corporation, priority 1989, dated 1992).

Tests used:
[1] = Soil removal, unbuilt household liquid laundry detergent, sebum/dust; settings: 100° F.
Description: (§1) Applicants blend three unbuilt household detergents differing only in the surfactant. Either Mobil's tridecanol-9 mole-ethoxylate, Shell's C12-15 -alcohol-9 mole-ethoxylate, or Vista's dodecylbenzenesulfonic acid sodium salt are used. All contain triethanolamine to make the wash liquor basic. This type formulation magnifies surfactant differences because it lacks a builder to extend the surfactant and soften hard water.
(§2) Testing Methods. This study uses two artificial soils on three test fabrics. Carbon black in an oil matrix simulates particulate soil, and sebum/dust simulates oily soil. Test Fabrics Inc. (Middlesex, N.J.) prints these soils on 100% cotton, 65/35 polyester/cotton with permanent press finish, and 100% polyester fabrics.
(§3) U.S. Testing Company did the fabric washing and drying under carefully controlled conditions. A Terg-O-Tometer washes using a 15 minute wash time. Conditions are 100 rpm agitation speed, 130° F. for the industrial detergents and 100° F. for the household detergents. They made wash and rinse water to 150 ppm hardness (U.S. national average), and washes six 3×4 inch test swatches per liter of solution. They rinse each load twice for five minutes. After washing and rinsing, the swatches are dried in an electric dryer, and ironed with a warm iron to remove wrinkles. All samples are run in triplicate.
(§4) White light reflectance, taken before and after washing, measures soil removal. A green filter cut out the effect of artificial brighteners. They measure soil redoposition by taking reflectance readings of fabric margins (areas not printed with soil) before and after washing. […] However, the reflectance technique more closely measures soil removal from the fabric surface, what the consumer sees.

[2] = Soil removal, phosphorous built industrial liquid laundry detergent, sebum/dust; settings: 130° F.
Description: (§5) In contrast, the three industrial detergents contained a high performance builder package, and dodecylbenzenesulfonic acid sodium salt. Two of the three also contain an AE, either tridecanol-9-mole-ethoxylate or C12-15 -alcohol-9 mole-ethoxylate. Many commercial detergents use combinations of LABS and AE's to balance performance and cost. LABS remove particulates well and lower overall surfactant cost while AE's effectively remove oily soils. The surfactant concentrations in all three are equal (i.e., the detergent without AE had more LABS) excepting the detergent using Mobil's AE. Its concentration is not increased to offset a contaminant, 7 wt % polyethylene glycol. The builder in all three detergents contained tetrapotassium pyrophosphate, sodium metasilicate, potassium hydroxide, and carboxymethylcellulose.
as §2, §3
(§6) White light reflectance, taken before and after washing, measures soil removal. A green filter cut out the effect of artificial brighteners. They measure soil redoposition by taking reflectance readings of fabric margins (areas not printed with soil) before and after washing. […]

[3] = Soil removal, unbuilt household liquid laundry detergent, carbon black/oil; settings: 100° F.
Description: as §1, §2, §3, §4

[4] = Soil removal, phosphorous built industrial liquid laundry detergent, carbon black/oil; settings: 130° F.
Description: as §5, §2, §3, §6

Substance: dodecylbenzenesulfonic acid sodium salt [Vista LABS]
- Percent Soil Removal ([1]; Cotton): 36%
- Percent Soil Removal ([1]; Polyester): 19%
- Percent Soil Removal ([1]; Polyester/Cotton): 45%
- Percent Soil Removal ([2]; Cotton): 60%
- Percent Soil Removal ([2]; Polyester): 39%
- Percent Soil Removal ([2]; Polyester/Cotton): 82%
- Percent Soil Removal ([3]; Cotton): 36%
- Percent Soil Removal ([3]; Polyester): 40%
- Percent Soil Removal ([3]; Polyester/Cotton): 31%
- Percent Soil Removal ([4]; Cotton): 52%
- Percent Soil Removal ([4]; Polyester): 29%
- Percent Soil Removal ([4]; Polyester/Cotton): 34%
